Measurements reported in patent US20070219146A1, “Synergistic Pharmaceutical And/Or Neutraceutical Flavanoid Composition For Management Of Diabetes Mellitus” (priority 2006, published 2007).

How the values were obtained:
[1] = tested on: Alloxan diabetic mice; assay: Acute study of Cocoa Flavanoid, blood sugar level in Alloxan diabetic mice; assay type: in vivo, Swiss Albino mice (male); settings: Glyburide 10 mg/kg; for Summary in percentage (Blood sugar level): reduction versus Normal
Procedure: Swiss Albino mice (male) in the weight range 25 to 30 grams were studied for acute affect. They were made diabetic by the admnistration of Alloxan (with admnistration of 70 mg/kg Alloxan and in 48 hours the animals develop diabetes). As the mice became diabetic and the blood sugar was above […], they were grouped into […] of six each. Each group was administered by the test drug at 25 mg/kg, 50 mg/kg 100 mg/kg and 250 mg/kg body weight. One group was administered a positive control drug glyburide at 10 mg/kg of body weight. Blood samples were drawn at 2 hour, 4 hour, 6 hour and 24 hour intervals for all mice. The blood sugar pattern is studied. It has been found out that the best results are obtained for a dose of 50 mg/kg body weight at 2 hours after administration and it increases up to the 6th hour. Good result is obtained for 100 mg/kg drug. […] The effect of 50 mg/kg compared very well with the effect of positive control drug glyburide at 10 mg/kg body weight.
This is an interesting finding that the hypoglycemic effect is best for a dose ranging between 50 mg to 100 mg/kg of body weight.

[2] = tested on: Alloxan diabetic mice; assay: Sub acute study (28 days) of Cocoa Flavanoid, blood sugar level in Alloxan diabetic mice; assay type: in vivo, Swiss Albino mice (Male); settings: Glyburide 10 mg/kg; for Summary in percentage (Blood sugar level): reduction versus Normal
Procedure: Swiss Albino mice (Male) in the weight range of 25 to 30 gram were studied for sub acute effect for 28 days. The mice were made diabetic by admnistration of Alloxan. As the mice became diabetic and the blood sugar was above […] they were chosen for the study. 4 groups were made. One group was given 50 mg/kg, 2nd group 100 mg/kg, 3rd group 250 mg/kg and the 4th group positive control glyburide at 10 mg/kg. Treatment was given for 28 days.
A very interesting observation was made that the best effect was produced by the dose of 100 mg/kg body weight. The effect started by 7th day and increased up to 28th day. […] Unlike acute study, the sub acute study has confirmed that 100 mg/kg given the most optimal blood sugar reduction. This effect was sustained after the removal of treatment on 35th day.

## COc1ccc(Cl)cc1C(=O)NCCc1ccc(S(=O)(=O)NC(=O)NC2CCCCC2)cc1 [Glyburide]
[1]; 2 hour
  Blood sugar level (reading): 317.50
  Summary in percentage (Blood sugar level): 15%
[1]; 4 hour
  Blood sugar level (reading): 266.16
  Summary in percentage (Blood sugar level): 29%
[1]; 6 hour
  Blood sugar level (reading): 149.50
  Summary in percentage (Blood sugar level): 60%
[1]; 24 hour
  Blood sugar level (reading): 228.66
  Summary in percentage (Blood sugar level): 39%
[1]; Normal (before administration)
  Blood sugar level (reading): 374.33
[2]; Normal (before treatment)
  Blood sugar level (reading): 396.09
[2]; day 7
  Blood sugar level (reading): 323.46
  Summary in percentage (Blood sugar level): 18%
[2]; day 14
  Blood sugar level (reading): 265.46
  Summary in percentage (Blood sugar level): 33%
[2]; day 21
  Blood sugar level (reading): 170.82
  Summary in percentage (Blood sugar level): 57%
[2]; day 28
  Blood sugar level (reading): 137.90
  Summary in percentage (Blood sugar level): 65%
